Results from patent US6936609B2, “Imidazotriazines for use as phosphodiesterase inhibitors” (Bayer HealthCare AG, priority 2001, dated 2005).

Key:
PDE 10A = target: T1, PDE 10A (Homo sapiens, UniProt Q9Y233); assay: Inhibition of PDE 10A (in vitro enzyme inhibition test); type: biochemical; conditions: recombinant full-length PDE10A expressed in Sf9 insect cells; substrate [5',8-3H] adenosine 3',5'-cyclic phosphate; 60 min at room temperature; scintillation proximity beads
T1 construct: is expressed recombinantly in full length in Sf9 insect cells; made in house; host or cells: Sf9 insect cells (Bac-to-Bac baculovirus system); lysate supernatant used as the enzyme preparation
Method: PDE10A (WO 01/29 199, FIG. 1A) is expressed recombinantly in full length in Sf9 insect cells (Invitrogen, Carlsbad, Calif.) with the aid of the Bac-to-Bac™ Baculovirus expression system of Life Technologies (Gaithersburg, Md.). 48 h after the infection, the cells are harvested and suspended in 20 ml (per 1 l of culture) of lysis buffer (50 mM tris HCl, pH 7.4, 50 mM NaCl, 1 mM MgCl2, 1.5 mM EDTA, 10% glycerol plus 20 μl of Protease Inhibitor Cocktail Set III [CalBiochem, La Jolla, Calif. USA]). The cells are treated at 4° C. for 1 minute with ultrasound and subsequently centrifuged at 10000 rpm for 30 minutes at 4° C. The supernatant (PDE10A preparation) was collected and stored at −20° C.
The test substances are dissolved and serially diluted in 100% DMSO for the determination of their in vitro action on PDE 10A. Typically, dilution series of 200 μM to 1.6 μM are prepared (resulting final concentrations in the test: 4 μM to 0.032 μM). In each case, 2 μl of the diluted substance solutions are introduced into the wells of microtitre plates (Isoplate; Wallac Inc., Atlanta, Ga.). 50 μl of a dilution of the PDE10A preparation described above are subsequently added. The dilution of the PDE10A preparation is chosen such that during the later incubation less than 70% of the substrate is reacted (typical dilution: 1:10000; dilution buffer: 50 mM tris/HCl pH 7.5, 8.3 mM MgCl2, 1.7 mM EDTA, 0.2% BSA). The substrate, [5′,8-^3H] adenosine 3′, 5′-cyclic phosphate (1 μCi/μl; Amersham Pharmacia Biotech., Piscataway, N.J.) is diluted 1:2000 to a concentration of 0.0005 μCi/μl with assay buffer (50 mM tris/HCl pH 7.5, 8.3 mM MgCl2, 1.7 mM EDTA). The enzyme reaction is finally started by addition of 50 μl (0.025 μCi) of the diluted substrate. The test batches are incubated at room temperature for 60 min and the reaction is stopped by addition of 25 μl of a suspension containing 18 mg/ml of Yttrium Scintillation Proximity Beads (Amersham Pharmacia Biotech., Piscataway, N.J.). The microtitre plates are sealed using a film and allowed to stand at room temperature for 60 min. The plates are subsequently measured for 30 s per well in a Microbeta scintillation counter (Wallac Inc., Atlanta, Ga.). IC50 values are determined with the aid of graphic plotting of the substance concentration against the percentage inhibition.

T1 sequence (Q9Y233 1-779 isoform Q9Y233-1): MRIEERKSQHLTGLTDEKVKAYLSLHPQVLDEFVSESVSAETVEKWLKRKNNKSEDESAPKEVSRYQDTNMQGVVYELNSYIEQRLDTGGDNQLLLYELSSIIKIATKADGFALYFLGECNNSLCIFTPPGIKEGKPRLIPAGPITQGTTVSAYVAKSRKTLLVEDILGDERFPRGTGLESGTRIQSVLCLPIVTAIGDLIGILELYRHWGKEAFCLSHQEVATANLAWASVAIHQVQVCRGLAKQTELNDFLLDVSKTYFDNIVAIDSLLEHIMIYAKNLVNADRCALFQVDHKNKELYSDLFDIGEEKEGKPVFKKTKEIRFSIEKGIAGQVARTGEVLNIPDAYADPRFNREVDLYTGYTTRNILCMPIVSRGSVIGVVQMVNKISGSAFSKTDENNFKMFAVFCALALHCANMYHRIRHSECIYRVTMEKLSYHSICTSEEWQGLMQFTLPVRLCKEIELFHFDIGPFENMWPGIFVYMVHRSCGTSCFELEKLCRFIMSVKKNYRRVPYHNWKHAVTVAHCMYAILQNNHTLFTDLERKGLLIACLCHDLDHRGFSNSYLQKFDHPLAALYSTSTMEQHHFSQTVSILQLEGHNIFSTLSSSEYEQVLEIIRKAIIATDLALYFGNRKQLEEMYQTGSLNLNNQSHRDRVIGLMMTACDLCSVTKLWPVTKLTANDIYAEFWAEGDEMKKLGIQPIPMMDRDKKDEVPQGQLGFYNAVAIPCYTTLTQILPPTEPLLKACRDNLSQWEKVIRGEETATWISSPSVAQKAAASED

Row | IC50 (PDE 10A) [nM] | melting point [°C] | SMILES
1 | 210 | – | COc1ccc(Nc2nc(-c3ccc(OC)c(OC)c3)nn3c(C4CCCC4)nc(C)c23)cc1Cl [Example 16, N-(3-Chloro-4-methoxyphenyl)-7-cyclopentyl-2-(3,4-dimethoxyphenyl)-5-methyl-imidazo[5,1-f][1,2,4]triazin-4-amine]
2 | 91 | 244 | COc1ccc(Nc2nc(-c3ccc(OC)c(OC)c3)nn3c(C4CCCC4)nc(C)c23)c(OC)c1 [Example 18, N-[7-Cyclopentyl-2-(3,4-dimethoxyphenyl)-5-methylimidazo[5,1-f][1,2,4]triazin-4-yl]-N-(2,4-dimethoxyphenyl)amine]
3 | 13 | – | COc1ccc(-c2nc(Nc3cc(OC)c(OC)c(OC)c3)c3c(C)nc(C4CCCC4)n3n2)cc1S(=O)(=O)N1CCOCC1 [Example 24, 7-Cyclopentyl-2-[4-methoxy-3-(4-morpholinylsulphonyl)phenyl]-5-methyl-N-(3,4,5-trimethoxyphenyl)imidazo[5,1-f][1,2,4]triazin-4-amine]
4 | 2400 | – | CCCc1nc(C)c2c(Nc3cccc(O)c3)nc(-c3ccccc3OCC)nn12 [Example 43, 3-{[2-(2-Ethoxyphenyl)-5-methyl-7-propylimidazo[5,1-f][1,2,4]triazin-4-yl]-amino}phenol]
5 | 68 | 219 to 220 | COc1cc(Nc2nc(-c3ccc(Br)cc3)nn3c(C)nc(C)c23)cc(OC)c1OC [Example 48, N-[2-(4-Bromophenyl)-5,7-dimethylimidazo[5,1-f][1,2,4]triazin-4-yl]-N-(3,4,5-trimethoxyphenyl)amine]
6 | 45 | 212 to 214 | COc1cc(Nc2nc(-c3ccc(C)cc3)nn3c(C)nc(C)c23)cc(OC)c1OC [Example 53, N-[5,7-Dimethyl-2-(4-methylphenyl)imidazo[5,1-f][1,2,4]triazin-4-yl]-N-(3,4,5-trimethoxyphenyl)amine]
